Experimental findings from patent US7977304B2, “FK 228 derivates as HDAC inhibitors” (University of Southampton Highfield, priority 2005, dated 2011) are described below.

A word on the pIC50: it is −log10 of the IC50, conventionally taken in molar units. As usually defined, the inhibition is the change of the read-out against control, counted positive when it falls. A higher inhibition goes with a response far below the control.

pIC50: −log10 of the molar value.

Test [1] deals with acetylated histone H4 in primary chronic lymphocytic leukaemia cells. As to the kind of experiment: Histone H4 acetylation in primary chronic lymphocytic leukaemia cells. It is filed as cell-based. To be noted: data not shown.
For another test, the system named is MCF7 breast cancer cells. As to the kind of experiment: Activity Assay 6: CyQuant cell growth inhibition, MCF7. It is filed as cell-based. Particulars: Homo sapiens, 144 h, MCF7, 6 days. The protocol: (§1) We analysed the ability of compounds to inhibit the in vitro growth of human cancer cells. Cell proliferation assays were performed using the CyQuant™ assay system (Molecular Probes, Inc. USA) according to the manufacturer's instructions. MCF7 breast, A2780 ovarian and PC3 and LNCAP prostate cancer cells were plated in 96 well plates, at a density of 1000 cells for MCF7 cells or 5000 cells for M780/PC3/LNCAP cells, in 100 μl of cell culture medium per well. Compounds were added a minimum of 5 hours later, in serial dilutions in cell culture medium, in 100 μl volumes at 2× final concentration. Cell culture medium was removed after 4 (A2780, PC3 or LNCAP cells) or 6 days (MCF7 cells) by inversion of the plate onto blotting paper and cells were gently washed once with 200 μl PBS. Plates were frozen immediately for a minimum of one hour at −80° C. and then thawed. 200 μl of 1× CyQuant cell lysis buffer supplemented with dye, made according to the manufacturer's instruction, was added immediately to each well and incubated at room temperature for 3-5 minutes. Fluorescence was then measured for each well using a Cytofluor II Fluoresence Multiwell Plate Reader and CytoFluor II software with filters at 480 nm for excitation and 520 nm for emission maxima. Cell proliferation was determined for mean values of duplicate samples as percentages relative to untreated cell samples (=100%). Growth inhibition curves were used to derive IC50 values.

The test system of test [2] is A2780 ovarian cancer cells. Briefly: Activity Assay 6: CyQuant cell growth inhibition, A2780. It is filed as cell-based. Particulars: Homo sapiens, 96 h, A2780, 4 days. The method, then:
as §1

Test [3] concerns histone acetylation in MCF7 breast cancer cells. As to the kind of experiment: Activity Assay 4: histone acetylation by immunoblotting, MCF7. It is filed as cell-based. To be noted: MCF7, 24 hours. The protocol: (§2) Method; Cardiac myocytes were prepared as described in Chembiochem. 2005 January; 6(1):162-70 and incubated with the indicated concentrations of compound 001 for 24 hours. MCF7 cells were incubated with the indicated concentrations of compound 001 for 24 hours. Expression of total histone H4 acetylation, or specific acetylation of Histone H4-K8 or Histone H3-K9 was analysed by Western blotting, as previously described (Brimmell et al. Br J Cancer. 1999 November; 81(6):1042-51) using antibodies from Upstate Biotech.
(§3) (A) MCF7 cells were incubated with compound 001 for 24 hours. Histone H4 acetylation was measured by immunoblotting. (B) Cardiac myocytes were incubated with indicated compound 001 for 24 hours. Histone H4 acetylation was measured by immunoblotting. (C) MCF7 cells were incubated with compound 001 for 24 hours. Histone H3-K9 and Histone H4-K8 acetylation was measured by immunoblotting
A general note: A western blot detects proteins with antibodies after separation by electrophoresis.

For test [4], the system named is TNFα production from peripheral blood mononuclear cells (PBMCs). Briefly: Activity Assay 7: LPS-induced TNFα secretion from PBMCs (QUANTIKINE immunoassay). To be noted: Homo sapiens, PBMC; Concentration 200 nM. It is filed as cell-based. The protocol: We analysed the ability of compounds to inhibit the production of TNFα from peripheral blood mononuclear cells (PBMCs). TNF-α immunoassays were carried out using the QUANTIKINE® Human TNF-α assay kit (R&D systems, Abingdon UK) according to the manufacturer's instructions. […] Compounds were added 1 hour later in volumes of 100 μl at 6× final concentration. Five hours later lipopolysaccharide (LSP, Sigma, Poole, UK) was added in a volume of 10 μl at 60× final concentration. Plates were mixed and left overnight at 37° C. 5% C02. Plates were centrifuged and cell supernatant was transferred to a new plate. The QUANTIKINE® assay reagents and standards were prepared according to the manufacturer instructions. The QUANTIKINE® assay plate was prepared by adding 50 μl of assay diluent RD1F into each well. This was followed by 200 μl of standard or 100 μl of calibrator diluent plus 100 μl cell supernatant; this was incubated for 2 hours at room temperature (RT). The plate was washed using wash buffer 4 times. After the final wash the plate was tapped on clean paper towel to remove all residual buffer. 200 μl of TNF-α conjugate was added to each well and incubated for 1 hour at RT. The plate was then washed as before. The required amount of substrate solution was prepared by adding equal volumes of colour reagents A and B, protecting from light, 200 μl of this mix was added to each well and incubated for 20 mins at RT, protected from light. 50 μl of stop solution was added to each well in the same order as the substrate solution and the plate was read on a Biorad 680 96 well plate reader (Bio-Rad, Hemel Hempstead, UK) at 450 nm with λ correction at 570 nm. TNF-α levels were determined for mean values of duplicate samples using absorbance in nm, calibration zero values were subtracted from all results to correct for the addition of calibrator diluent in the assay.

In test [5] the test system is histone acetylation in cardiac myocytes. As to the kind of experiment: Activity Assay 4: histone acetylation by immunoblotting, cardiac myocytes. Particulars: 24 hours. It is filed as cell-based. The protocol: as §2, §3
Test [6] concerns HDAC (Hela Nuclear Extract). Briefly: Activity Assay 5: in vitro HDAC fluorescent activity assay (Biomol kit). It is filed as biochemical. To be noted: compounds reduced with DTT prior to analysis, 37° C., 1 hour, read-out: Inhibition of HDAC activity IC50. The protocol:
We analysed the ability of compounds to inhibit in vitro HDAC activity. In vitro HDAC assays were performed using a HDAC fluorescent activity assay kit (Biomol, UK) according to the manufacturer's instructions. Compounds were reduced prior to analysis; 1 mM compound was reduced with 30 mM DTT in DMSO overnight at room temperature, protected from light. Reactions were then set up in a 96-well plate. […] Serial dilutions were set up for each compound. Reactions containing Hela extract only and assay buffer only were also set up. 25 μl diluted Fluor de Lys™ substrate (100-fold in assay buffer) was added to each reaction, which were then incubated at 37° C. for 1 hour. The reaction was stopped by addition of 50 μl Fluor de Lys™ Developer (20-fold dilution in assay buffer, plus TSA diluted 100-fold). […] Inhibition of in vitro HDAC activity was determined for mean values of duplicate samples as percentages relative to HeLa extract only reactions. IC50 values were calculated using GraphPad Prism software.

As for `CC(C)[C@H]1NC(=O)[C@H]2CSSCC/C=C/[C@H](CC(=O)N[C@H](C)C(=O)N2)OC(=O)CNC1=O` [Compound 9A, (E)-(1S,7R,10S,21R)-7-isopropyl-21-methyl-2-oxa-12,13-dithia-5,8,20,23-tetraaza-bicyclo[8.7.6]tricos-16-ene-3,6,9,19,22-pentaone], in test [1], the “levels of acetylated histone H4, primary chronic lymphocytic leukaemia cells” value is “increased the levels of acetylated histone H4”. Moreover, the pIC50 in the test with MCF7 breast cancer cells was 7.44; in test [2], 6.89; in test [6] it was 8.00. For the same compound, the “Histone H3-K9 and Histone H4-K8 acetylation, MCF7 cells” value in test [3] was “specific Histone H3-K9 and Histone H4-K8 acetylation”. Besides, in test [3], the “Histone H4 acetylation, MCF7 cells” value was “induces the accumulation of acetylated histone H4”. For the same compound, the inhibition at 0.2 µM in test [4] turned out to be 69%. For the same compound, the “Histone H4 acetylation, cardiac myocytes” value in test [5] is listed as “induces the accumulation of acetylated histone H4”.
